Measured values reported in paper PMC11187260, “Unraveling the interconversion pharmacokinetics and oral bioavailability of the major ginger constituents: [6]-gingerol, [6]-shogaol, and zingerone after single-dose administration in rats” (Frontiers in Pharmacology, 2024).
Where two headings read alike, the source gives them in different places.

Key:
Assay type in all cases: in vivo, Female Sprague Dawley rats
[1] = Safety evaluation: physical appearance and blood chemistry after single i.v. or p.o. dose; details: for ALP / ALT / AST / BUN / Creatinine: post-dose (24 h), mean ± SD n=6; for Physical appearance: post-dose
Protocol: (§1) This study is composed of two sections; the first section involves an investigation of the interconversion pharmacokinetics of the pure compounds, and the second focuses on tissue distribution. All rats were transferred to metabolic cages and fasted overnight for at least 10 h. The animals were then randomly divided into four groups (6 rats/group) to receive a single intravenous (i.v.) administration of either 6G, 6S, zingerone, or vehicle via the lateral tail vein at a dosage of 3 mg/kg. After a 7-week washout period, the rats received 30 mg/kg of the same test compounds through a single oral (p.o.) administration. Following each administration, blood samples (300 µL) were collected in heparinized tubes from the lateral tail vein (while rats were under anesthesia with isoflurane) at specified time points: 0.083, 0.25, 0.5, 1, 1.5, 2, 3, 4, 6, 8, and 24 h after administration. An additional 1 mL of blood sample was collected from each rat at pre-dose (0 h) and post-dose (24 h) for clinical laboratory testing and safety evaluation. All heparinized blood samples were initially centrifuged at 5,000 × g, 4 °C, for 10 min. Subsequently, the plasma was carefully transferred to a cryotube as an aliquot sample and then stored at −40 °C until analysis. Urine and feces were collected during the intervals of 0–24 h and 24–48 h post-dosing, and their weights and volumes were documented. All collected urine and feces samples were stored at −40 °C until analysis.
Plasma samples were collected at baseline (T0) and T24 h for the determination of blood chemistry, including levels of blood urea nitrogen (BUN), creatinine, aspartate transaminase (AST), alanine transaminase (ALT), and alkaline phosphatase (ALP). The analyses were conducted by the Exclusive Veterinary Professional Laboratory Center (Bangkok, Thailand). The creatinine level was determined using an enzymatic oxidase assay, while AST and ALT levels were determined using the procedure of the International Federation of Clinical Chemistry (IFCC) without pyridoxal phosphate activation.

[2] = Pharmacokinetics and oral bioavailability after single oral administration (30 mg/kg), plasma LC-MS/MS; details: for bioavailability / AUC(0-inf) / AUC(0-t) / Tmax: plasma, 30 mg/kg; for AUC(0-t): read-out: AUC(0-t); for Tmax: median [IQR]; for presence of parent compound in plasma: following oral administration; for time to detectable plasma levels: oral administration of pure compound; for time to reach peak plasma concentration (Cmax): parent compound after oral administration 30 mg/kg
Protocol: as §1
Plasma samples were processed through protein precipitation. In brief, 50 µL of plasma was mixed with 200 µL of methanol containing 50 ng/mL of IS (dihydrocapsaicin). The mixtures were vortexed and centrifuged at 14,000 × g at 4 °C for 10 min. The supernatant was filtered through a […] PVDF membrane (Chrome Tech, MN, USA) before analysis.
(§2) Investigation of glucuronide conjugations followed a previously published method with some modification ([Wang et al., 2017]; [Songvut et al., 2023]). A 50 μL aliquot of plasma, urine, or feces sample was incubated at 37 °C for a minimum of 30 min with 50 μL of β-glucuronidase (3,000 U/mL) in a sodium phosphate buffer (pH 6.8). For sample extraction, 150 μL of methanol containing 50 μg/L of IS was pipetted into the pre-incubated samples. Subsequently, the mixtures were vortexed for 10 min and then centrifuged at 14,000 × g at 4 °C for 10 min. The supernatants were filtered through a […] PVDF membrane (Chrome Tech, MN, United States) and then analyzed using the validated LC-MS/MS method.
Quantitative analysis was conducted using liquid chromatography-tandem mass spectrometry (LC-MS/MS) with a Nexera X2 LCMS-8060NX instrument (Shimadzu, Japan). The instrument included a CBM-40lite system controller, CTO-40C column oven, SIL-40C XR autosampler, LC-40D XR solvent pump unit, FCV-DGU-403 degasser, and 20AH2 switching valve. The LC-MS/MS system was operated with a binary pump and equipped with a triple quadrupole mass spectrometer.
Pharmacokinetic parameters were assessed using PK Solutions software (version 2.0) with non-compartmental analysis. The AUC was calculated using the Linear-Log Trapezoidal Method. The maximum plasma concentration (Cmax) and time to reach maximum plasma concentration (Tmax) were taken directly from the graph.
(§3) Plasma concentration-time profiles were plotted using GraphPad Prism 9.3.0 (GraphPad Software, USA). The absolute oral bioavailability was calculated as follows: F = (AUC p.o./dose p.o.)/(AUC i.v./dose i.v.). The percentage recovery of each administered compound was calculated as the total amount of the drug found in urine or feces divided by the administered dose. The tissue-to-plasma concentration ratios (K p) were calculated by dividing the concentration in the tissue by the corresponding plasma concentration at the respective sampling time point.

[3] = Interconversion clearance between 6G and 6S after intravenous administration; details: single i.v. 3 mg/kg
Protocol: The interconversion between 6G and 6S was determined using previously published methods ([Ebling and Jusko, 1986]; [Prueksaritanont et al., 2005]). The clearance of 6G biotransformed into 6S was calculated as CL12, while the reverse clearance (6S → 6G) was calculated as CL21. The irreversible elimination clearances of 6G and 6S were calculated as CL10 and CL20, respectively. The following equations were used in accordance with the notation provided in Supplementary Table S3. CL12=Dose^shogaol […] CL21=Dose^gingerol […] CL10=Dose^gingerol x AUCshogaolshogaol- Dose^shogaol […] CL20=Dose^shogaol […]- Dose^gingerol […]

[4] = Percent recovery in urine and feces after intravenous or oral administration; details: for parent compound recovered in urine: during 24–48 h; for dose excreted: female, Sprague Dawley, rat, % of administered dose; for unchanged form in fecal excretion: within 48 h after intravenous or oral administration
Protocol: as §1
Urine samples were centrifuged, and 50 µL of urine was extracted with 200 µL of 100% methanol. The mixture was vortexed for 10 min and subsequently centrifuged at 14,000 × g at 4 °C for 10 min. Feces and organs were weighed and homogenized with methanol (50:50% w/v). The supernatants of the extracted urine, feces, and organs were also filtered through a […] PVDF membrane (Chrome Tech, MN, USA) before analysis.
as §2, §3

[5] = female, Sprague-Dawley, rat, po, p.o. 30 mg/kg vs i.v. 3 mg/kg of the pure compound, mean ± SD n=6, read-out: %Oral bioavailability
[6] = female, Sprague-Dawley, rat, po, p.o. 30 mg/kg vs i.v. 3 mg/kg of the pure compound, range among rats, read-out: %Oral bioavailability (range)
[7] = female, Sprague-Dawley, rat, po, p.o. 30 mg/kg vs i.v. 3 mg/kg, pure compounds, read-out: absolute oral bioavailability (upper bound)
[8] = female, Sprague-Dawley, rat, po, plasma analyte after [6]-gingerol p.o. 30 mg/kg, mean ± SD n=6
[9] = female, Sprague-Dawley, rat, po, plasma analyte after [6]-gingerol p.o. 30 mg/kg
[10] = feces, iv, 3 mg/kg, intravenous administration 3 mg/kg of parent compound, read-out: % Recovery excretion, feces T 0–24 h
[11] = feces, iv, 3 mg/kg, intravenous administration 3 mg/kg of parent compound, read-out: % Recovery excretion, feces T 24–48 h
[12] = feces, po, 30 mg/kg, oral administration 30 mg/kg of parent compound, read-out: % Recovery excretion, feces T 0–24 h
[13] = feces, po, 30 mg/kg, oral administration 30 mg/kg of parent compound, read-out: % Recovery excretion, feces T 24–48 h
[14] = urine, iv, 3 mg/kg, intravenous administration 3 mg/kg of parent compound, read-out: % Recovery excretion, urine T 0–24 h
[15] = urine, iv, 3 mg/kg, intravenous administration 3 mg/kg of parent compound, read-out: % Recovery excretion, urine T 24–48 h
[16] = urine, po, 30 mg/kg, oral administration 30 mg/kg of parent compound, read-out: % Recovery excretion, urine T 0–24 h
[17] = urine, po, 30 mg/kg, oral administration 30 mg/kg of parent compound, read-out: % Recovery excretion, urine T 24–48 h
[18] = female, Sprague-Dawley, rat, po, plasma analyte after zingerone p.o. 30 mg/kg, mean ± SD n=6

SMILES	ALP ([1]; i.v. 3 mg/kg)	ALT ([1]; i.v. 3 mg/kg)	AST ([1]; i.v. 3 mg/kg)	BUN ([1]; i.v. 3 mg/kg)	Creatinine ([1]; i.v. 3 mg/kg)	ALP ([1]; p.o. 30 mg/kg)	ALT ([1]; p.o. 30 mg/kg)	AST ([1]; p.o. 30 mg/kg)	BUN ([1]; p.o. 30 mg/kg)	Creatinine ([1]; p.o. 30 mg/kg)	Physical appearance ([1]; i.v. 3 mg/kg)	Physical appearance ([1]; p.o. 30 mg/kg)	bioavailability [2, 5]	bioavailability [2, 6]	bioavailability [2, 7]	AUC(0-inf) [2, 8]	AUC(0-t) [2, 8]	Tmax [2, 9]	presence of parent compound in plasma [2]	time to detectable plasma levels [2]	other results
CCCCC[C@H](O)CC(=O)CCc1ccc(O)c(OC)c1 [[6]-gingerol]	44.67 ± 7.09 U/L	20.33 ± 2.42 U/L	65.83 ± 19.66 U/L	12.83 ± 2.64 mg/dL	0.73 ± 0.04 mg/dL	32.67 ± 7.45 U/L	21.23 ± 2.44 U/L	60.50 ± 7.12 U/L	12.17 ± 2.86 mg/dL	0.66 ± 0.03 mg/dL	Normal	Normal	0.17 ± 0.11%	0.1 to 0.4%	< 2%	92.1 ± 26.9 ng·h/mL	92.1 ± 26.9 ng·h/mL	4.8 min	up to 4 h	≤ 5 min	plasma level of converted product ([2]; after oral administration of 6S 30 mg/kg): undetectable; time to reach peak plasma concentration (Cmax) [2]: 5 to 45 min; clearance ([3]; female, Sprague-Dawley, rat, plasma, iv, read-out: CL10 (irreversible elimination clearance of 6G) (converted)): 8.67 mL/min/kg; CL12 relative to reverse clearance CL21 [3]: approximately sevenfold greater; parent compound recovered in urine [4]: less than 1%; dose excreted [4, 10]: 0.005 ± 0.002%; dose excreted [4, 11]: 0.005 ± 0.001%; dose excreted [4, 12]: 0.001 ± 0.001%; dose excreted [4, 13]: < 0.001%; dose excreted [4, 14]: 0.623 ± 0.706%; dose excreted [4, 15]: 0.008 ± 0.005%; dose excreted [4, 16]: 0.1 ± 0.102%; dose excreted [4, 17]: 0.002 ± 0.001%; unchanged form in fecal excretion [4]: < 0.1%
COc1cc(CCC(C)=O)ccc1O [zingerone, 4-(4-hydroxy-3-methoxyphenyl)-2-butanone]	48.50 ± 14.00 U/L	28.50 ± 5.82 U/L	64.17 ± 11.05 U/L	14.17 ± 1.33 mg/dL	0.70 ± 0.03 mg/dL	35.83 ± 8.38 U/L	19.33 ± 2.50 U/L	53.83 ± 6.88 U/L	9.83 ± 1.47 mg/dL	0.75 ± 0.02 mg/dL	Normal	Normal	0.75 ± 0.52%	0.32 to 1.6%	< 2%	28 ± 7.4 ng·h/mL	28 ± 7.4 ng·h/mL	15 min	up to 4 h	≤ 5 min	Tolerability ([1]; single i.v. 3 mg/kg or p.o. 30 mg/kg): exhibited tolerance; plasma detection of zingerone after 6S administration ([2]; after 6S administration (route not given)): not detected; AUC(0-inf) [2, 18]: 950 ± 373 ng·h/mL; AUC(0-t) [2, 18]: 944 ± 348 ng·h/mL; Tmax ([2]; female, Sprague-Dawley, rat, po, plasma analyte after zingerone p.o. 30 mg/kg): 4.8 min; Cmax [2, 18]: 1870 ± 604 ng/mL; time to reach peak plasma concentration (Cmax) [2]: 5 to 45 min; parent compound recovered in urine [4]: less than 1%; dose excreted [4, 10]: 0.049 ± 0.027%; dose excreted [4, 11]: 0.002 ± 0.001%; dose excreted [4, 12]: 0.004 ± 0.003%; dose excreted [4, 13]: 0.057 ± 0.017%; dose excreted [4, 14]: 0.184 ± 0.286%; dose excreted [4, 15]: < 0.001%; dose excreted [4, 16]: 0.049 ± 0.032%; dose excreted [4, 17]: < 0.001%; unchanged form in fecal excretion [4]: < 0.1%
